# Source: patent US4895834A, “Renin inhibitors III” (Warner-Lambert Company, priority 1987, dated 1990)
# Tested on: renin maintained blood pressure (Hog renin infused)
# Experiment: lowering renin maintained blood pressure in the anesthetized, vagotomized, ganglionic-blocked rat (hog renin infused)
# Format: in vivo
# Conditions: 1 mg/kg IV
# Protocol: The effectiveness of the aforementioned compounds in vivo is determined by their effect on lowering renin maintained blood pressure in the anesthetized, vagotomized, ganglionic-blocked rat.
# After the blood pressure has stabilized, 1.25 mg/kg IV mecamylamine is added to produce ganglionic blockade. Hog renin is then infused to bring the blood pressure to a level observed before vagotomy and ganglionic blockade. Test compound is then administered IV and the drop in blood pressure is noted.
# The compound was administered at as dose of 1 mg/kg.
row,SMILES,Percent Decrease of Blood Pressure [%]
1,"CC(C)C[C@H](NC(=O)C[C@H](O)[C@H](CC(C)C)NC(=O)[C@H](Cc1c[nH]cn1)NC(=O)C(Cc1cccc2ccccc12)Cc1cccc2ccccc12)C(=O)NCc1ccccc1 [Example 1, DNMA-HIS-STA-LEU-NHCH2 Ph]",65

# Molecular target: T1, renin (Homo sapiens, UniProt P00797)
# T1 sequence (P00797 67-406): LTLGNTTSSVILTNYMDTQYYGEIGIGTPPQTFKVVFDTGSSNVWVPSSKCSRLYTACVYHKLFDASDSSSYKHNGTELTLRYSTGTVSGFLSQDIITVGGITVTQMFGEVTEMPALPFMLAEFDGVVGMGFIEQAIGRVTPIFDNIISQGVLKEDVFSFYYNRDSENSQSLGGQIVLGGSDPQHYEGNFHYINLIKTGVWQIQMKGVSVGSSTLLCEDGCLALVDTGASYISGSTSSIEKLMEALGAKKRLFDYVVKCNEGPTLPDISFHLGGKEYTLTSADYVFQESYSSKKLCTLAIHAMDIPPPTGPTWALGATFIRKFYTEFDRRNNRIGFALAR
# Experiment: in vitro renin inhibitory activity, radioimmunoassay for angiotensin I
# Format: biochemical
# Conditions: molar concentration causing 50% inhibition of renin activity; renin incubated two hours at 37° with angiotensinogen
# Protocol: The effectiveness of the aforementioned compound is determined by a test for in vitro renin inhibitory activity. This activity is determined by a standard radioimmunoassay for angiotensin I. In this assay the enzyme, renin, incubated for two hours at 37° in the presence of a substrate, angiotensinogen, generates the product, angiotensin I. Test compounds are added to the incubation mixture. Relative activity is reported as the IC50, which is the molar concentration of test compound causing a 50% inhibition of the renin activity.
row,IC50 [nM],SMILES
1,560,CC[C@H](C)CNC(=O)C[C@H](O)[C@H](CC(C)C)NC(=O)[C@H](Cc1c[nH]cn1)NC(=O)C(Cc1cccc2ccccc12)C(=O)OC(C)(C)C (some centres unmarked) [Example 2]
2,220,"CC(C)C[C@H](NC(=O)[C@H](Cc1c[nH]cn1)NC(=O)C(Cc1cccc2ccccc12)Cc1cccc2ccccc12)[C@@H](O)CC(=O)NCC(O)CSC(C)C (some centres unmarked) [Example 3, DNMA-HIS-STA-NHCH2 CH(OH)CH2 SCH(CH3)2]"
3,82,"CC(C)C[C@H](NC(=O)[C@H](Cc1c[nH]cn1)NC(=O)C(Cc1cccc2ccccc12)Cc1cccc2ccccc12)[C@@H](O)CC(=O)NCC(O)CS(=O)(=O)C(C)C (some centres unmarked) [Example 4, DNMA-HIS-STA-NHCH2 CH(OH)CH2 SO2 CH(CH3)2]"
4,2200,CC(C)C[C@H](NC(=O)C[C@H](O)[C@H](CC(C)C)NC(=O)[C@H](Cc1c[nH]cn1)NC(=O)C(Cc1ccccc1)SCc1ccccc1)C(=O)NCc1ccccc1 (some centres unmarked) [Example 11]
5,980,"CC(C)C[C@H](NC(=O)C[C@H](O)[C@H](CC1CCCCC1)NC(=O)[C@H](CC(=O)O)NC(=O)C(Cc1cccc2ccccc12)Cc1cccc2ccccc12)C(=O)NCc1ccccc1 [Example 17, DNMA-ASP-CYSTA-LEU-NHCH2 Ph]"
6,4100,"CC(C)C[C@H](NC(=O)C[C@H](O)[C@H](CC(C)C)NC(=O)[C@H](Cc1cnc[nH]1)N(C)C(=O)C(Cc1cccc2ccccc12)Cc1cccc2ccccc12)C(=O)NCc1ccccc1 [Example 20, DNMA-(N-MeHIS)-STA-LEU-NHCH2 Ph]"
7,4000,CC(C)C[C@H](NC(=O)[C@H](Cc1c[nH]cn1)NC(=O)C(Cc1cccc2ccccc12)Cc1cccc2ccccc12)[C@@H](O)CC(=O)NCc1cccc(CNC(=O)OCc2ccccc2)c1 [Example 22]
